Data from patent US7803377B2, “Anti-DLL4 antibodies and methods using same” (Genentech, Inc., priority 2006, dated 2010).

Columns and labels:
[1] = system: adult retinal vasculature; test: Adult mouse retina vasculature (ASMA and isolectin staining); format: in vivo; details: 8 week-old mice, 10 mg/kg, twice weekly for two weeks
Source text: FIG. 8: DLL4-mediated Notch signaling regulated EC differentiation. a, The lumen-like structures (white arrows) formed by HUVECs growing in fibrin gels were lost in the presence of anti-DLL4 antibody or DBZ. Instead, the spouts were highly packed with cells (black arrows). b, Regulation of TGFβ2 by Notch. Quantitative PCR analysis of TGFβ2 expression in response to, Notch blockade in 3-D fibrin gel culture of HUVECs for (7 d) by anti-DLL4 antibody or DBZ (left), or Notch activation in 2-D culture of HUVECs (36 hr) by immobilized DLL4 (right). c, Anti-DLL4 antibody blocks arterial development. Confocal images of neonatal mouse retinas stained with alpha smooth muscle actin (ASMA) and isolectin. Neonatal mice were treated as described in FIG. 1d. d, Confocal images of adult mouse retinas stained with ASMA and isolectin. 8 week-old mice were treated with PBS or anti-DLL4 antibody (10 mg/kg, twice weekly) for two weeks.
Thus, DLL4/Notch signaling is critical during active angiogenesis, but plays a less important role in normal vessel maintenance.

[2] = system: human lung carcinoma MV-522 cells; test: Tumor model MV-522; format: in vivo, mouse; details: treatment initiated at ≧250 mm^3
Experimental: (§1) Tumor models. Beige nude female mice of 8- to 10-week-old were used. To obtain subcutaneous tumors, mice were injected with 0.1 ml cell suspension containing 50% matrigel (BD Bioscience) into the right posterior flank. 5×10^6 human colon cancer HM7 cells, 10×10^6 human colon carcinoma Colo205 cells, 10×10^6 human lung carcinoma Calu6 cells, 10×10^6 human lung carcinoma MV-522 cells, 10×10^6 mouse leukemia WEHI-3 cells, 10×10^6 mouse lymphoma EL4 cells, 10×10^6 human ovarian cancer SK-OV-3 X1 cells, 10×06 mouse lung cancer LL2 cells, 10×10^6 leukemia/lymphoma EL4 cells, or 10×10^6 non-small lung cancer H1299 cells were injected into each mouse. For human melanoma MDA-MB-435 model, mice were injected into the mammary fat pad with 0.1 ml cell (5×10^6) suspension containing 50% matrigel. […] For the following tumor models, each test mouse received a subcutaneous tumor fragment (1 mm^3) implanted in the right flank: non-small lung cancer SKMES-1, human breast cancer MX-1, human colorectal cancer SW620 and human adenocarcinoma LS174T. The tumor growth was quantitated by caliper measurements. Tumor volume (mm^3) was determined by measuring the length (l) and width (w) and calculating the volume (V=lw2/2). 10 to 15 animals were included in each group. Statistical comparison of treatment groups was performed using two-tailed Student's t-test. […]

human breast cancer MX-1 = test: Tumor model MX-1; format: in vivo, mouse; details: 5 mg/kg, IP, twice weekly after establishment of the tumors
Experimental: as §1

[3] = system: human colorectal cancer SW620; test: Tumor model SW620; format: in vivo, mouse; details: 5 mg/kg, IP, twice weekly after establishment of the tumors
Experimental: as §1

[4] = system: SK-OV-3X1, LL2, EL4, H11299, SKMES-1, MX-1, SW620 and LS174T models; test: Tumor models, combination of YW26.82 with anti-VEGF where tested; format: in vivo, mouse; details: YW26.82 5 mg/kg and anti-VEGF 5 mg/kg, IP, twice weekly; models where the combination was tested
Experimental: as §1

small intestines = test: Histology and immunohistochemistry of mouse intestines; format: in vivo; details: anti-DLL4 antibody 10 mg/kg, twice weekly for 6 weeks
Experimental: FIG. 10: DLL4/Notch was dispensable in the homeostasis of mouse intestine. Immunohistochemical studies of small intestines from control (a, d, g, j), anti-DLL4 antibody (10 mg/kg, twice weekly for 6 weeks) (b, e, h, k), and DBZ treated (30 μmol/kg daily for 5 days) (c, f, i, l) mice.
Histology and immunohistochemistry of mouse intestines. Formalin-fixed and paraffin-embedded mouse small intestine tissues were sectioned at 3 μm thickness. Histochemical identification of intestinal cell types was performed with Alcian blue as recommended by the manufacturer (PolyScientific). For anti-Ki67 staining, sections were pretreated with Target Retrieval Solution (S1700, DAKO), and incubated with rabbit anti-Ki67 (1:200, clone SP6, Neomarkers). Secondary goat anti-rabbit at 7.5 µg/ml (Vector labs) was detected with the Vectastain ABC Elite Kit (Vector labs). All Ki67 stained sections were counterstained with Mayer's hematoxylin. For HES-1 staining, anti-rat HES-1 (clone NM1, MBL, International), followed by TSA-HRP, was used.
A major concern about global inhibition of Notch is that it may be deleterious, given the pleiotropic roles of Notch signaling in regulating the homeostasis of postnatal self-renewal systems. For instance, Notch signaling is required to maintain undifferentiated crypt progenitor cells in intestines (van Es, J. H. et al. Nature 435, 959-63 (2005); Fre, S. et al. Nature 435, 964-8 (2005)). Indeed, γ-secretase inhibitors, which would indiscriminately block all Notch activities, cause unwanted side effects in rodents duo to a massive increase in goblet cells within the crypt compartment (Milano, J. et al. Toxicol Sci 82, 341-58 (2004); Wong, G. T. et al. J Biol Chem 279, 12876-82 (2004)). We examined the small intestines of mice treated with anti-DLL4 Mab by immunohistochemistry analyses.

## YW26.82: affinity matured anti-DLL4 monoclonal antibody; HVR-H1/H2/H3 SEQ ID NO:1, 8, 9; HVR-L1/L2/L3 SEQ ID NO:10, 11, 18
[1]
  impact on adult retinal vasculature: no visible impact on adult retinal vasculature
[2]
  tumor growth, single agent: inhibited tumor growth
[2]; combination with anti-VEGF
  tumor growth, combination of YW26.82 and anti-VEGF: most effective
Human breast cancer MX-1
  tumor growth, single agent: inhibited tumor growth alone
[3]
  tumor growth, single agent: inhibited tumor growth alone
[4]
  efficacy in combination with anti-VEGF: enhanced efficacy
Small intestines
  epithelial crypt cell differentiation or proliferation in small intestine: entirely absent
  expression of Notch target gene HES-1 in transit amplifying (TA) population: did not alter the expression of the Notch target gene HES-1
Small intestines; listed as anti-DLL4 Mab
  epithelial crypt cell differentiation or proliferation in small intestine: no differences in epithelial crypt cell differentiation or proliferation profiles
